Test results from patent publication US10206399B2, “Herbicidal composition comprising uracil compound as active ingredient” (Dongbu Farm Hannong Co., Ltd., priority 2012, dated 2019).
Like-named read-outs stand apart in the source and are kept apart here.

Experiments:
[1] = tested on: Xanthium spinosum; details: for plant mortality, measured value: Xanthium spinosum; for Xanthium spinosum mortality, measured value: 20 days after treatment
Text: (§1) X is % damage by uracil compound (a) of formula 1 at the rate of application of p kg/ha; Y is % damage by conventional herbicidal compound (b) at the rate of application of q kg/ha; and E is the expected damage caused by compounds (a) and (b) at a rate of application of p and q kg/ha.
(§2) The expected activity for a given combination of two herbicides can be calculated using equation 1 above.

[2] = tested on: Aeschynomene indica; details: for plant mortality, measured value: Aeschynomene indica; for Aeschynomene indica mortality, measured value: 20 days after treatment
Text: as §1, §2

[3] = tested on: Digitaria sanguinalis; details: for plant mortality, measured value: Digitaria sanguinalis; for Digitaria sanguinalis mortality, measured value: 20 days after treatment
Text: as §1, §2

[4] = tested on: Abutilon theophrasti; details: for plant mortality, measured value: Abutilon theophrasti; for Abutilon theophrasti mortality, measured value: 20 days after treatment
Text: as §1, §2

[5] = tested on: Echinochloa crus; details: for plant mortality, measured value: Echinochloa crus; for Echinochloa crus mortality, measured value: 20 days after treatment
Text: as §1, §2

[6] = tested on: Echinochloa crus; experiment: Paddy field farming herbicidal composition test, plant mortality; assay type: in vivo
Text: as §1, §2

[7] = tested on: Monochoria vaginalis; experiment: as above; assay type: in vivo
Text: as §1, §2

[8] = Echinochloa, read-out: Echinochloa crus mortality, measured value
[9] = Pontederia vaginalis, read-out: Monochoria vaginalis mortality (measured value)

## O=C(O)COc1ccc(Cl)cc1Cl [2,4-D)]
[1]; 200 g/ha
  Data (measured value) Xanthium spinosum: 22
[1]; 400 g/ha
  Data (measured value) Xanthium spinosum: 50
[2]; 200 g/ha
  Data (measured value) Aeschynomene indica: 24
[2]; 400 g/ha
  Data (measured value) Aeschynomene indica: 51
[3]; 200 g/ha
  Data (measured value) Digitaria sanguinalis: 0
[3]; 400 g/ha
  Data (measured value) Digitaria sanguinalis: 0
[4]; 200 g/ha
  Data (measured value) Abutilon theophrasti: 21
[4]; 400 g/ha
  Data (measured value) Abutilon theophrasti: 47
[5]; 200 g/ha
  Data (measured value) Echinochloa crus: 0
[5]; 400 g/ha
  Data (measured value) Echinochloa crus: 0

## O=C(O)COc1ccc(Cl)cc1Cl [2,4-D]
[1]; 100 g/ha
  Data (measured value) Xanthium spinosum: 10
  plant mortality, measured value: 10
[1]; 200 g/ha
  plant mortality, measured value: 22
[1]; 400 g/ha
  plant mortality, measured value: 50
[2]; 100 g/ha
  Data (measured value) Aeschynomene indica: 7
  plant mortality, measured value: 7
[2]; 200 g/ha
  plant mortality, measured value: 24
[2]; 400 g/ha
  plant mortality, measured value: 51
[3]; 100 g/ha
  Data (measured value) Digitaria sanguinalis: 0
  plant mortality, measured value: 0
[3]; 200 g/ha
  plant mortality, measured value: 0
[3]; 400 g/ha
  plant mortality, measured value: 0
[4]; 100 g/ha
  Data (measured value) Abutilon theophrasti: 7
  plant mortality, measured value: 7
[4]; 200 g/ha
  plant mortality, measured value: 21
[4]; 400 g/ha
  plant mortality, measured value: 47
[5]; 100 g/ha
  Data (measured value) Echinochloa crus: 0
  plant mortality, measured value: 0
[5]; 200 g/ha
  plant mortality, measured value: 0
[5]; 400 g/ha
  plant mortality, measured value: 0

## C=CCOC(=O)C(C)(C)OC(=O)c1cc(-n2c(=O)cc(C(F)(F)F)n(C)c2=O)ccc1Cl [(Butafenacil]
[1]; 16 g/ha
  plant mortality, measured value: 54
[2]; 16 g/ha
  plant mortality, measured value: 67
[3]; 16 g/ha
  plant mortality, measured value: 5
[4]; 16 g/ha
  plant mortality, measured value: 51
[5]; 16 g/ha
  plant mortality, measured value: 5

## CC(C)(NC(=O)C(Br)C(C)(C)C)c1ccccc1 (centres unmarked) [Bromobutide]
[6]; Echinochloa, 225 g/ha, read-out: Echinochloa crus mortality (measured value)
  pest or weed control at 225 g/ha: 0%
[7]; Pontederia vaginalis, 225 g/ha, read-out: Monochoria vaginalis mortality (measured value)
  pest or weed control at 225 g/ha: 50%

## CCN(CC)C(=O)n1cnc(S(=O)(=O)c2c(C)cc(C)cc2C)n1 [Cafenstrole]
[6]; [8]
  pest or weed control at 50 g/ha: 20%
[7]; [9]
  pest or weed control at 50 g/ha: 30%

## COCCOc1ccccc1S(=O)(=O)NC(=O)N=c1nc(OC)[nH]c(OC)n1 [Cinosulfuron]
[6]; [8]
  pest or weed control at 10 g/ha: 20%
[7]; [9]
  pest or weed control at 10 g/ha: 30%

## C[C@@H](Oc1ccc(Oc2ncc(Cl)cc2F)cc1)C(=O)O [Clodinafop, reference compound]
[1]; 15 g/ha
  Xanthium spinosum mortality, measured value: 0%
[1]; 30 g/ha
  Xanthium spinosum mortality, measured value: 0%
[2]; 15 g/ha
  Aeschynomene indica mortality, measured value: 0%
[2]; 30 g/ha
  Aeschynomene indica mortality, measured value: 0%
[3]; 15 g/ha
  Digitaria sanguinalis mortality, measured value: 21%
[3]; 30 g/ha
  Digitaria sanguinalis mortality, measured value: 50%
[4]; 15 g/ha
  Abutilon theophrasti mortality, measured value: 0%
[4]; 30 g/ha
  Abutilon theophrasti mortality, measured value: 0%
[5]; 15 g/ha
  Echinochloa crus mortality, measured value: 25%
[5]; 30 g/ha
  Echinochloa crus mortality, measured value: 53%

## COc1cc(OC)nc(NC(=O)NS(=O)(=O)Nc2ccccc2C(=O)C2CC2)n1 [Cyclosulfamuron]
[6]; Echinochloa, 11 g/ha, read-out: Echinochloa crus mortality (measured value)
  pest or weed control at 11 g/ha: 30%
[7]; Pontederia vaginalis, 11 g/ha, read-out: Monochoria vaginalis mortality (measured value)
  pest or weed control at 11 g/ha: 50%

## CCN(C(=O)SCc1ccccc1)C(C)C(C)C (centres unmarked) [Esprocarb]
[6]; [8]
  pest or weed control at 500 g/ha: 20%
[7]; [9]
  pest or weed control at 500 g/ha: 30%

## CCOc1ccccc1OS(=O)(=O)NC(=O)Nc1nc(OC)cc(OC)n1 [Ethoxysulfuron]
[6]; [8]
  pest or weed control at 15 g/ha: 10%
[7]; [9]
  pest or weed control at 15 g/ha: 20%

## CCN(C(=O)n1nnn(-c2ccccc2Cl)c1=O)C1CCCCC1 [Fentrazamide]
[6]; [8]
  pest or weed control at 50 g/ha: 20%
[7]; [9]
  pest or weed control at 50 g/ha: 30%

## COc1cc(OC)nc(NC(=O)NS(=O)(=O)c2c(C(=O)O)c(Cl)nn2C)n1 [Halosulfuron]
[6]; [8]
  pest or weed control at 11 g/ha: 30%
[7]; [9]
  pest or weed control at 11 g/ha: 30%

## COc1cc(OC)nc(NC(=O)NS(=O)(=O)c2c(Cl)nc3ccccn23)n1 [Imazosulfuron]
[6]; Echinochloa, 18 g/ha, read-out: Echinochloa crus mortality (measured value)
  pest or weed control at 18 g/ha: 20%
[7]; Pontederia vaginalis, 18 g/ha, read-out: Monochoria vaginalis mortality (measured value)
  pest or weed control at 18 g/ha: 40%

## CCC1(CC2(c3cccc(Cl)c3)CO2)C(=O)c2ccccc2C1=O (centres unmarked) [Indanofan]
[6]; [8]
  pest or weed control at 37.5 g/ha: 25%
[7]; [9]
  pest or weed control at 37.5 g/ha: 0%

## Cc1cc(Cl)ccc1OCC(=O)O [MCPA]
[1]; 75 g/ha
  Data (measured value) Xanthium spinosum: 8
[1]; 150 g/ha
  Data (measured value) Xanthium spinosum: 25
[1]; 300 g/ha
  Data (measured value) Xanthium spinosum: 59
[2]; 75 g/ha
  Data (measured value) Aeschynomene indica: 11
[2]; 150 g/ha
  Data (measured value) Aeschynomene indica: 24
[2]; 300 g/ha
  Data (measured value) Aeschynomene indica: 58
[3]; 75 g/ha
  Data (measured value) Digitaria sanguinalis: 0
[3]; 150 g/ha
  Data (measured value) Digitaria sanguinalis: 0
[3]; 300 g/ha
  Data (measured value) Digitaria sanguinalis: 0
[4]; 75 g/ha
  Data (measured value) Abutilon theophrasti: 11
[4]; 150 g/ha
  Data (measured value) Abutilon theophrasti: 32
[4]; 300 g/ha
  Data (measured value) Abutilon theophrasti: 64
[5]; 75 g/ha
  Data (measured value) Echinochloa crus: 0
[5]; 150 g/ha
  Data (measured value) Echinochloa crus: 0
[5]; 300 g/ha
  Data (measured value) Echinochloa crus: 0

## Cc1cc(Cl)ccc1OCCCC(=O)O [MCPB]
[1]; 75 g/ha
  plant mortality, measured value: 12
[1]; 150 g/ha
  plant mortality, measured value: 27
[1]; 300 g/ha
  plant mortality, measured value: 58
[2]; 75 g/ha
  plant mortality, measured value: 13
[2]; 150 g/ha
  plant mortality, measured value: 32
[2]; 300 g/ha
  plant mortality, measured value: 64
[3]; 75 g/ha
  plant mortality, measured value: 12
[3]; 150 g/ha
  plant mortality, measured value: 25
[3]; 300 g/ha
  plant mortality, measured value: 56
[4]; 75 g/ha
  plant mortality, measured value: 11
[4]; 150 g/ha
  plant mortality, measured value: 22
[4]; 300 g/ha
  plant mortality, measured value: 52
[5]; 75 g/ha
  plant mortality, measured value: 9
[5]; 150 g/ha
  plant mortality, measured value: 27
[5]; 300 g/ha
  plant mortality, measured value: 57

## CN(C(=O)COc1nc2ccccc2s1)c1ccccc1 [Mefenacet]
[6]; [8]
  pest or weed control at 200 g/ha: 30%
[7]; [9]
  pest or weed control at 200 g/ha: 30%

## COc1cc(OC)nc(NC(=O)NS(=O)(=O)c2c(C3=NOCC(C)O3)c(Cl)nn2C)n1 (centres unmarked) [Metazosulfuron]
[6]; 25 g/ha
  Echinochloa crus mortality, measured value: 35
[7]; 25 g/ha
  Monochoria vaginalis mortality (measured value): 40

## COc1cc(OC)nc(NC(=O)NS(=O)(=O)Nc2ccccc2C(=O)N(C)C)n1 [Orthosulfamuron]
[6]; 17.5 g/ha
  Echinochloa crus mortality, measured value: 10
[7]; 17.5 g/ha
  Monochoria vaginalis mortality (measured value): 40

## CC1=C(c2ccccc2)C(=O)N(C(C)(C)c2cc(Cl)cc(Cl)c2)CO1 [Oxaziclomefone]
[6]; Echinochloa, 12.5 g/ha, read-out: Echinochloa crus mortality (measured value)
  pest or weed control at 12.5 g/ha: 30%
[7]; Pontederia vaginalis, 12.5 g/ha, read-out: Monochoria vaginalis mortality (measured value)
  pest or weed control at 12.5 g/ha: 0%

## CCCc1ccc2nc(Cl)c(S(=O)(=O)NC(=O)Nc3nc(OC)cc(OC)n3)n2n1 [Propyrisulfuron]
[6]; 18 g/ha
  Echinochloa crus mortality, measured value: 45
[7]; 18 g/ha
  Monochoria vaginalis mortality (measured value): 45

## COc1cccc(N(C)C(=S)Oc2cccc(C(C)(C)C)c2)n1 [Pyributicarb]
[6]; Echinochloa, 150 g/ha, read-out: Echinochloa crus mortality (measured value)
  pest or weed control at 150 g/ha: 20%
[7]; Pontederia vaginalis, 150 g/ha, read-out: Monochoria vaginalis mortality (measured value)
  pest or weed control at 150 g/ha: 20%

## CON=C(C)c1cccc(Oc2nc(OC)cc(OC)n2)c1C(=O)O [Pyriminobac]
[6]; 11 g/ha
  Echinochloa crus mortality, measured value: 50
[7]; 11 g/ha
  Monochoria vaginalis mortality (measured value): 0

## COCc1cccc(C(O)c2nc(OC)cc(OC)n2)c1NS(=O)(=O)C(F)F (centres unmarked) [Pyrimisulfan]
[6]; 16.5 g/ha
  Echinochloa crus mortality, measured value: 40
[7]; 16.5 g/ha
  Monochoria vaginalis mortality (measured value): 50

## COc1cc(OC)nc(Sc2cccc3c2C(=O)OC3C)n1 (centres unmarked) [Pyritlalid]
[6]; 37.5 g/ha
  Echinochloa crus mortality, measured value: 30
[7]; 37.5 g/ha
  Monochoria vaginalis mortality (measured value): 0

## NC1=C(Cl)C(=O)c2ccccc2C1=O [Quinoclamine]
[6]; 450 g/ha
  Echinochloa crus mortality, measured value: 0
[7]; 450 g/ha
  Monochoria vaginalis mortality (measured value): 0

## COc1nc(OC)nc(C(=O)c2cccc(F)c2N(C)S(=O)(=O)C(F)F)n1 [Triafamone]
[6]; 12.5 g/ha
  Echinochloa crus mortality, measured value: 50
[7]; 12.5 g/ha
  Monochoria vaginalis mortality (measured value): 10

## CCSC(=O)N1CCCCCC1 [molinate]
[6]; [8]
  pest or weed control at 500 g/ha: 50%
[7]; [9]
  pest or weed control at 500 g/ha: 0%
